Two molecules from ChEMBL document CHEMBL3244261, “3-hydroxyisoxazole-5-hydroxamic acid” (1977) can be followed below.

Assay [1] deals with L1210. The assay can be described thus: Antitumor activity against mouse L1210 cells allografted in mouse at 100 mg/kg. The format is functional, organism-based. Details: dose 100 mg/kg.
In assay [2] the test system is P388. The assay can be described thus: Antitumor activity against mouse P388 cells allografted in mouse assessed as tumor growth inhibition at 100 mg/kg relative to control. The format is functional.

The structures appear in SMILES notation. Active and inactive are the calls of the source. No cut-off for these calls is given here.

By T/C is commonly meant the result in the treated group divided by that in the control group, in per cent. Turning to `O=C(/C=C(\Cl)C(=O)NO)NO`, the result in assay [1] was inactive. In assay [2], the T/C turned out to be 154%.
As for `O=C(NO)c1cc(O)no1`, in assay [1], the outcome was inactive.
